This note sets out measurements from paper PMC6386362, “Mechanism and resistance for antimycobacterial activity of a fluoroquinophenoxazine compound” (PLoS ONE, 2019).

The target of the assay is T1, Mtb topoisomerase I (MtbTopI) (Mycobacterium tuberculosis, UniProt P9WG49).
T1 construct: gene topA
It is filed as biochemical.

T1 sequence (P9WG49 whole entry): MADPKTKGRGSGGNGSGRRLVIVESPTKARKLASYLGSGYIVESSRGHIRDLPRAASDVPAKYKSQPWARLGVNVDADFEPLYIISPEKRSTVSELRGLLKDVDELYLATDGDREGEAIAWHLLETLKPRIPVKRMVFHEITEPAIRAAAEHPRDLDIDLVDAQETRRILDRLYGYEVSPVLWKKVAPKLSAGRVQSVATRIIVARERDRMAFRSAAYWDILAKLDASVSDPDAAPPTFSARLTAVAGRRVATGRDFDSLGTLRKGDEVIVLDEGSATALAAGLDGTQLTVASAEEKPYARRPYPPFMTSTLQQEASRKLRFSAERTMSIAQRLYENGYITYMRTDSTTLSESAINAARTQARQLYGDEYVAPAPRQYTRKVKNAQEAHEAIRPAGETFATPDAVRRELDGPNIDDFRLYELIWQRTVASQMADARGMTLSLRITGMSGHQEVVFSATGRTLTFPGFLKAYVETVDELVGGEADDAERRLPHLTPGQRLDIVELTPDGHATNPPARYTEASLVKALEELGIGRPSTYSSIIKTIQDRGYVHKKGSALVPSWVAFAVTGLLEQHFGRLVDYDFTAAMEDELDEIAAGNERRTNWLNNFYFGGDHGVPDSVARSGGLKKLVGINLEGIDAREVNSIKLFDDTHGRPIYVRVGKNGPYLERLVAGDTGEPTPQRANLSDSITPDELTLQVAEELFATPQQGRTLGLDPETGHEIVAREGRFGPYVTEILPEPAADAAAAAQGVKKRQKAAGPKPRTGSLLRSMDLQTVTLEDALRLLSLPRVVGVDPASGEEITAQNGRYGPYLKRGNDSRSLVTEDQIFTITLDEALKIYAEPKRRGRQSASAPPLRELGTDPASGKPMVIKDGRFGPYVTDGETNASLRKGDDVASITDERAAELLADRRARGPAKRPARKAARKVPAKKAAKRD

As to `Nc1ccc2c(c1)Oc1c(N3CCC(N4CCCCC4)CC3)c(F)cc3c(=O)c(C(=O)O)cn-2c13` [FP-11g], the IC50 was determined as 240 ± 40 nM.
